pIC50: −log10 of the molar value.
Key:
human factor XIa = human factor XIa (Homo sapiens (Human), UniProt P03951); assay: Measurement of FXIa inhibition (fluorogenic peptide substrate); format: biochemical; conditions: substrate Boc-Glu(OBzl)-Ala-Arg-AMC
Description: (§1) The factor XIa inhibition of the substances according to the invention is determined using a biochemical test system which utilizes the reaction of a peptidic factor XIa substrate to determine the enzymatic activity of human factor XIa. Here, factor XIa cleaves from the peptidic factor XIa substrate the C-terminal aminomethylcoumarin (AMC), the fluorescence of which is measured. The determinations are carried out in microtitre plates.
(§2) Test substances are dissolved in dimethyl sulfoxide and serially diluted in dimethyl sulfoxide (3000 μM to 0.0078 μM; resulting final concentrations in the test: 50 µM to 0.00013 μM). In each case 1 μl of the diluted substance solutions is placed into the wells of white microtitre plates from Greiner (384 wells). […] After 15 min of incubation, the enzyme reaction is started by addition of 20 μl of the factor XIa substrate Boc-Glu(OBzl)-Ala-Arg-AMC dissolved in assay buffer (10 μM in assay buffer) from Bachem, the mixture is incubated at room temperature (22° C.) for 30 min and fluorescence is then measured (excitation: 360 nm, emission: 460 nm). The measured emissions of the test batches with test substance are compared to those of control batches without test substance (only dimethyl sulfoxide instead of test substance in dimethyl sulfoxide), and IC50 values are calculated from the concentration/activity relationships. […]

human plasma kallikrein = human plasma kallikrein (Homo sapiens (Human), UniProt P03952); assay: Determination of the plasma kallikrein activity (fluorogenic peptide substrate); format: biochemical; conditions: substrate H-Pro-Phe-Arg-AMC
Description: as §1, with “To determine the plasma kallikrein” for “The factor XIa”, “invention,” for “invention is determined using”, “system is used” for “system”, “plasma kallikrein” for “factor XIa”, “plasma kallikrein.” for “factor XIa.”
as §2, with “[…];” for “μM;”, “μM” for “µM”, “the” for “the factor XIa”, “H-Pro-Phe-Arg-AMC” for “Boc-Glu(OBzl)-Ala-Arg-AMC”

human plasma kallikrein, sequence (P03952 391-638): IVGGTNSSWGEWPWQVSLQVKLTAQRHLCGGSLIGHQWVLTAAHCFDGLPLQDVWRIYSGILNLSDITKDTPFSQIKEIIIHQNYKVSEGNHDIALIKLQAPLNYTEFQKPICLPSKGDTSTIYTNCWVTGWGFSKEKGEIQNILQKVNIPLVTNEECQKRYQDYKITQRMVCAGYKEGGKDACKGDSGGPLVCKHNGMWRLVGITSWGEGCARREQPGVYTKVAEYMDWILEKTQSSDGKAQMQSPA
human plasma kallikrein, sequence (P03952 20-390 partner): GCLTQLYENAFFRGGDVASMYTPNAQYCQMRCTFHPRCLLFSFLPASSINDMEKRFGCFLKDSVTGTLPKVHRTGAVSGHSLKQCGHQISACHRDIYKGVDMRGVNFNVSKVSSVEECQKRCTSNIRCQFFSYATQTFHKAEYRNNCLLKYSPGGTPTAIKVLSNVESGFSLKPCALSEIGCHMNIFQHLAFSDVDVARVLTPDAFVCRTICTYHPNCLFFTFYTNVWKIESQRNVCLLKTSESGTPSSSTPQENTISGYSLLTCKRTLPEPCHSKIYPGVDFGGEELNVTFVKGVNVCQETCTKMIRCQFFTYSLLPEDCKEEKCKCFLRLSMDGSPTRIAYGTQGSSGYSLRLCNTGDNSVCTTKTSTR
human factor XIa, sequence (P03951 388-625): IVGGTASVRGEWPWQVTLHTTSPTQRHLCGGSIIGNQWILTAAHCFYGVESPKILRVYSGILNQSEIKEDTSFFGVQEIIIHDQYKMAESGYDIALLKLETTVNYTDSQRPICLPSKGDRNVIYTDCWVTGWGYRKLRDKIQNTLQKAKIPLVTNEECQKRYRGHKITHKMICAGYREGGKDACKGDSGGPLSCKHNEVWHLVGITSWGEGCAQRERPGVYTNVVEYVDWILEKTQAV
human factor XIa, sequence (P03951 19-387 partner): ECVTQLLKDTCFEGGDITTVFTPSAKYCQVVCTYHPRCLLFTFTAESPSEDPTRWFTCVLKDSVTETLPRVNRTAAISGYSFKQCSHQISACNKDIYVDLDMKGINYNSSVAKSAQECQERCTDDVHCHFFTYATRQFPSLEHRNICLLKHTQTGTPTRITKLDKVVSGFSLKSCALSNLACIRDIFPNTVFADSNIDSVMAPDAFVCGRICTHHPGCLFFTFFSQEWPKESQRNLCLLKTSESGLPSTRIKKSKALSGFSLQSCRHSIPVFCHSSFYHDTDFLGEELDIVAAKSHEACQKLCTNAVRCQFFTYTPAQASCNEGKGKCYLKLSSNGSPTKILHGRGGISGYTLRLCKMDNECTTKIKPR

pIC50 (human factor XIa): 8.92
pIC50 (human plasma kallikrein): 8.47
SMILES: COc1cn([C@@H](C)C(=O)Nc2ccc(C(N)=O)c(F)c2)c(=O)cc1-c1c(-n2cc(C(F)(F)F)nn2)ccc(Cl)c1F [Example 2.4, 4-({(2S)-2-[4-{3-Chloro-2-fluoro-6-[4-(trifluoromethyl)-1H-1,2,3-triazol-1-yl]phenyl}-5-methoxy-2-oxopyridin-1(2H)-yl]propanoyl}amino)-2-fluorobenzamide]

Reference: US20240174633A1, “CRYSTALLINE FORMS OF (4S)-24-CHLORO-4-ETHYL-73-FLUORO-35-METHOXY-32,5-DIOXO-14-(TRIFLUORO-METHYL)-32H-6-AZA-3(4,1)-PYRIDINA-1(1)-[1,2,3]TRIAZOLA-2(1,2),7(1)-DIBENZENAHEPTAPHANE-74-CARBOXAMIDE” (Bayer Aktiengesellschaft, priority 2021, published 2024)
